Assay results published in the NIST ThermoML archive (doi:10.1016/j.jct.2018.02.016).

Settings: Gas chromatography

C1C2CC3CC1CC(C2)C3 [adamantane]
Liquid
Settings	vapor or sublimation pressure [kPa]
298.15 K	0.13
310 K	0.26
320 K	0.46
330 K	0.77
340 K	1.3
350 K	2
360 K	3.1
370 K	4.6
380 K	6.8
390 K	9.8
400 K	14
410 K	19
420 K	26
430 K	35
440 K	46
545 K	460
555 K	550
565 K	650
575 K	760

CC1=CC[C@@]23C[C@@H]1C(C)(C)[C@@H]2CC[C@H]3C [alpha-cedrene]
Metastable liquid
Settings	vapor or sublimation pressure [kPa]
298.15 K	0.0031
310 K	0.0081
320 K	0.017
330 K	0.035
340 K	0.067
350 K	0.12
360 K	0.22
370 K	0.37
380 K	0.61
390 K	0.99
400 K	1.5
410 K	2.4
420 K	3.5
430 K	5.1
440 K	7.3
533.2 K	101.3

C=C1CC[C@@]23C[C@@H]1C(C)(C)[C@@H]2CC[C@H]3C [beta-cedrene]
Metastable liquid
Settings	vapor or sublimation pressure [kPa]
298.15 K	0.0031
310 K	0.0081
320 K	0.017
330 K	0.035
340 K	0.067
350 K	0.12
360 K	0.21
370 K	0.37
380 K	0.61
390 K	0.99
400 K	1.5
410 K	2.3
420 K	3.5
430 K	5.1
440 K	7.3
533.3 K	101.3

C1C2CC3C4CC5CC(C14)C(C2)C3C5 [pentacyclo[7.3.1.1(4,12).0(2,7).0(6,11)]tetradecane]
Metastable liquid
Settings	vapor or sublimation pressure [kPa]
298.15 K	0.0016
310 K	0.0043
320 K	0.0091
330 K	0.018
340 K	0.036
350 K	0.066
360 K	0.12
370 K	0.2
380 K	0.34
390 K	0.55
400 K	0.87
410 K	1.3
420 K	2
430 K	3
440 K	4.3
516 K	44.3
526 K	56
536 K	71
546 K	89
